# Source: US20120258937A1, “Targeting Estrogen Receptors in the Treatment of Lymphangioleiomyomatosis” (Fox Chase Cancer Center, priority 2011, published 2012)
# Experiments:
# ELT3 cells = test: ELT3 xenograft tumor growth, lung metastasis and survival in SCID mice; type: in vivo; details: for effect on estradiol-promoted lung metastases: ELT3 xenograft model of LAM; for mean tumor area: post-inoculation week eight
# Description: Animal studies. All animal work was performed in accordance with protocols approved by the Institutional Animal Care and Use Committee at the Brigham and Women's Hospital. Female ovariectomized and male CB17-SCID mice, six to eight weeks of age, were purchased from Taconic (Hudson, N.Y.). One week prior to ELT3 cell injection, 17-beta estradiol or placebo pellets (2.5 mg, 90-day release, Innovative Research America, Sarasota, Fla.) were implanted. For xenograft tumor establishment, 2×10^6 ELT3 cells were bilaterally injected into the rear flanks of the mice. Lung metastases were scored from five-micron H & E stained sections of each lobe by observers blinded to the experimental conditions. […]
# Statistical analyses. Statistical analyses were performed using Student's t-test when comparing two groups. Results are presented as means+SD (Standard Deviation) of experiments performed in triplicate. Differences were considered significant at p<0.05.
# ELT3 xenograft tumors = test: Analysis of ELT3 xenograft tumors (H&E, immunohistochemistry, TUNEL, immunoblot, real-time RT-PCR); type: in vivo, mice; details: for MMP2 protein level vs placebo-treated: immunoblotting
# Description: Animal studies. All animal work was performed in accordance with protocols approved by the Institutional Animal Care and Use Committee at the Brigham and Women's Hospital. Female ovariectomized and male CB17-SCID mice, six to eight weeks of age, were purchased from Taconic (Hudson, N.Y.). One week prior to ELT3 cell injection, 17-beta estradiol or placebo pellets (2.5 mg, 90-day release, Innovative Research America, Sarasota, Fla.) were implanted. For xenograft tumor establishment, 2×10^6 ELT3 cells were bilaterally injected into the rear flanks of the mice. Lung metastases were scored from five-micron H & E stained sections of each lobe by observers blinded to the experimental conditions. Fulvestrant (1 mg/day, intramuscular injection) or Doxycycline (0.7 mg/day, 60-day release, Innovative Research America) treatments were initiated one day post-cell inoculation.
# (§1) Immunoblotting and antibodies. Cells were rinsed once in ice-cold PBS and lysed in m-PER buffer (50 mM HEPES, pH 7.5, 50 mM NaCl, 5 mM EDTA, 50 mM NaF, 10 mM Na4P2O7, and 1% Triton, Pierce). Lysates were resolved by SDS-PAGE electrophoresis and transferred onto Immobilon P membranes (Millipore, Bedford, Mass.). The following antibodies were used for Western blot analysis: anti-MMP2 (Chemicon), anti-phospho-p42/44 MAPK (T202/Y204), anti-p42/44MAPK, anti-Collagen Type IV (Abnova), anti-Ki67 (BioGenex, San Ramon, Calif.), anti-beta-actin (Sigma), and anti-ERα (Santa Cruz, Calif.). Western blots were developed using horseradish peroxidase-conjugated secondary antibodies and ECL chemiluminescence (Amersham Biosciences, Piscataway, N.J.).
# (§2) Immunohistochemistry. Sections were deparaffinized, incubated overnight with primary antibodies at 4° C. in a humidified chamber and then rinsed and incubated with biotinylated secondary antibodies for 30 minutes at room temperature. Slides were developed using the Broad Spectrum AEC Histostain®-Plus or Histostain®-Plus kit (Invitrogen), and they were counterstained with Gill's Hematoxylin. TUNEL assay reagent was from Roche. Gelatin zymography. Conditioned media from cultured cells were collected, filtered through […] Nalgene filter, and subjected for gel electrophoresis on 10% SDS-PAGE containing 0.1% gelatin (Invitrogen). MMP2 activity was detected according to the manufacture's protocol. Real-time RT-PCR. Total RNA from cultured cells and xenograft tumors was isolated using RNeasy® Mini Kit (Qiagen, Valencia, Calif.). Gene expression was quantified using One-Step qRT-PCR Kits (Invitrogen) in the Applied Biosystems Real-Time PCR System and normalized to beta-actin control amplification.
# MMP2 [1] = test: MMP2 activity in ELT3 conditioned media by gelatin zymography; type: cell-based, rat; details: ELT3 cells
# Description: (§3) Cell culture and reagents. ELT-3 cells (Eker rat uterine leiomyoma-derived smooth muscle cells) were cultured in IIA complete medium supplemented with 15% fetal bovine serum (FBS). Prior to the in vitro experiments, cells were maintained in media supplemented with 10% charcoal-stripped FBS for three days, and then serum-starved for 24 hours in serum-free and phenol red-free medium. 17 beta-estradiol (E2, 10 nM, Sigma, St. Louis, Mo.), PD98059 (50 μM, Cell Signaling Technology, Danvers, Mass.), or ICI 182780 (1 μM, Biomol) were added to the cells as indicated.
# as §2
# MMP2 [2] = test: MMP2 accumulation in cultured ELT3 cells by immunoblotting; type: cell-based, rat
# Description: as §3, §1
# [3] = estradiol plus drug, immunoblot
# [4] = ELT3 xenograft, given on this schedule (one day prior to cell inoculation)
# [5] = real-time RT-PCR, female mice, size-matched tumors
structure (smiles),measurement,setting,value
C[C@H]1c2cccc(O)c2C(=O)C2=C(O)[C@]3(O)C(=O)C(C(N)=O)=C(O)[C@@H](N(C)C)[C@@H]3[C@@H](O)[C@@H]21 [Doxycycline],average number of lung metastases,ELT3 cells; drug plus estradiol,9 metastases/mouse
same,range of number of lung metastases,ELT3 cells; drug plus estradiol,6-18 metastases/mouse
same,effect on estradiol-promoted lung metastases,ELT3 cells; drug plus estradiol,does not inhibit
same,mice with lung metastases,"ELT3 cells; drug plus estradiol, four of five mice",80%
same,mean tumor area,ELT3 cells; drug plus estradiol,333±142 mm^2
same,mean tumor area,ELT3 cells; drug plus placebo,193±80 mm^2
C[C@]12CC[C@@H]3c4ccc(O)cc4C[C@@H](CCCCCCCCC[S+]([O-])CCCC(F)(F)C(F)(F)F)[C@H]3[C@@H]1CC[C@@H]2O (stereo partly drawn) [Fulvestrant],effect on estradiol-promoted lung metastases,ELT3 cells; drug plus estradiol,completely blocked
same,effect on survival of estradiol-treated mice bearing xenograft tumors,"ELT3 cells; drug plus estradiol, Kaplan-Meier",significantly increased
same,mean tumor area,ELT3 cells; drug plus estradiol,259±83 mm^2
same,cell death (TUNEL staining) in xenograft tumors,ELT3 xenograft tumors; drug in estradiol-treated mice,did not affect
same,cell proliferation (Ki-67 immunoreactivity) in xenograft tumors,ELT3 xenograft tumors; drug in estradiol-treated mice,did not affect
same,ECM organization in xenograft tumors,ELT3 xenograft tumors; drug plus estradiol-treated animals,well-maintained ECM network
same,ECM organization in xenograft tumors,ELT3 xenograft tumors; drug plus placebo-treated animals,dense bundles of collagen fibers
same,ERα in tumors,ELT3 xenograft tumors; [3],lower levels
same,phospho-p42/44 MAPK in tumors,ELT3 xenograft tumors; [3],lower levels
same,effect on estradiol-stimulated MMP2 activity,"MMP2 [1]; 4 hours pretreatment, then estradiol stimulation",almost completely blocked
COc1cccc(-c2cc(=O)c3ccccc3o2)c1N [PD98059],effect on estradiol's enhancement of MMP2 accumulation,"MMP2 [2]; 30 minutes preincubation, after two hours of estradiol treatment",strongly blocked
CO[C@H]1C[C@@H]2CC[C@@H](C)[C@@](O)(O2)C(=O)C(=O)N2CCCC[C@H]2C(=O)O[C@H]([C@H](C)C[C@@H]2CC[C@@H](OCCO)[C@H](OC)C2)CC(=O)[C@H](C)/C=C(\C)[C@@H](O)[C@@H](OC)C(=O)[C@H](C)C[C@H](C)/C=C/C=C/C=C/1C [RAD001],lung metastasis,ELT3 cells; [4],completely blocked
same,subcutaneous tumor development,ELT3 cells; [4],completely blocked
"C[C@]12CC[C@@H]3c4ccc(O)cc4CC[C@H]3[C@@H]1CC[C@@H]2O [estradiol, 17 beta-estradiol]",increase of MMP2 accumulation,MMP2 [2]; within two to four hours of estradiol treatment,five to seven-fold
same,average number of lung metastases,ELT3 cells; E2 alone,10 metastases/mouse
same,range of number of lung metastases,ELT3 cells; E2 alone,4-37 metastases/mouse
same,mice with pulmonary metastases,"ELT3 cells; E2 alone, five of nine mice",56%
same,increase in pulmonary metastasis of ELT3 cells,"ELT3 cells; E2 alone, mice bearing xenograft tumors",three- to five-fold
same,overall survival vs placebo-treated mice,"ELT3 cells; estradiol alone, mice bearing xenograft tumors",reduced overall survival
same,mean tumor area,ELT3 cells; estrogen alone,251±65 mm^2
same,type IV collagen in xenograft tumors,"ELT3 xenograft tumors; estradiol alone vs placebo, female and male mice",marked reduction
same,ECM organization in xenograft tumors,"ELT3 xenograft tumors; estradiol alone vs placebo, female and male mice, H&E",disrupted ECM network
same,MMP2 protein level vs placebo-treated,ELT3 xenograft tumors; female mice,1.8 fold
same,MMP2 protein level vs placebo-treated,ELT3 xenograft tumors; male mice,2.5 fold
same,MMP2 transcript level vs placebo-treated,ELT3 xenograft tumors; [5],5 fold
same,MMP9 transcript level vs placebo-treated,ELT3 xenograft tumors; [5],28 fold
same,progesterone receptor (PgR) level vs placebo-treated,"ELT3 xenograft tumors; real-time RT-PCR, xenograft tumors",4 fold
same,increase of MMP2 activity,MMP2 [1]; estradiol stimulation for 24 hours,eight-fold
same,duration of estradiol-stimulated MMP2 activity,MMP2 [1]; up to 120 minutes stimulation,sustained throughout the 120 minutes stimulation
same,increase of active MMP2 level,MMP2 [1]; within five minutes of estradiol stimulation,three-fold
